The nature of this series: physchem. It is filed as physicochemical. As for the experimental part:
"Not dissociable" means that the pKa value (logarithmic measure of the acid dissociation constant) for the reaction alcohol (D) → deprotonated alcohol (D) + H^+ of the hydroxy group in the neutral aqueous phase is more than 9.9, more preferably more than 11, most preferably more than 12, particularly preferably more than 13, for example more than 14 as measured in de-ionized water at 25° C and atmospheric pressure.

For 1 compound, pKa results are on record in patent EP3725756A2, “COMPOSITIONS WITH IMPROVED UREASE-INHIBITING EFFECT COMPRISING AMINES, OR COLORANTS, AND AN ADDUCT OF THE THREE COMPOUNDS N-(N-BUTYL) THIOPHOSPHORIC ACID TRIAMIDE (NBPT), UREA, AND FORMALDEHYDE” (BASF SE, priority 2019, dated 2020).

`CC(O)CO` (stereo not shown) [propane-1,2-diol] showed a pKa of 14.9.
